In patent US8168861B2, “Compositions and methods for increasing cellulose production” (The Regents of the University of California, priority 2008, dated 2012):

Key:
[1] = system: Arabidopsis thaliana hypocotyl; assay: Dark-grown hypocotyl growth of SRF mutants on isoxaben media; format: in vivo
Protocol: Data is taken from three independent experiments. Data is from hypocotyl lengths relative to wild type plants grown on the same plate and relative to mutants grown on DMSO control media. Student's t-test: *=p<0.05.
Arabidopsis thaliana ecotype Columbia-0 (Col-0) was used. Before plating seeds were surface sterilized. First, the seeds were washed in 95% ethanol for 10 minutes, which was removed then the sterilization solution was added (20% bleach, 0.05% Tween-20 (Sigma) and double distilled water) and shaken for 10 minutes. The sterilization solution was removed and the seeds were washed three times with sterile distilled water. The seeds were cold treated for 4 days at 4° C. after plating them on the plates. Two different growth media were prepared for these experiments. For the control conditions: one-half strength Murashige and Skoog (MS) salts (Sigma), 0.5% sucrose (Sigma), 0.8% phyto agar (Research Products International Corp.), 1×B5 (1,000× in double distilled water: 10% myo-inositol, 0.1% nicotinic acid and 0.1% pyroxidine HCl) and 1× Thiamin (2,000× in double distilled water: 0.2% thiamin HCl). The other growth media contained either no sucrose but all other components remained the same. Plants used in Fourier Transform Infrared (FT-IR) Microspectroscopy and hypocotyl length, were only grown on sucrose-deprived media in the dark for four days after cold treatment. For selection of mutants from the Arabidopsis Biological Resource Center (ARBC), they were first plated onto MS media containing 50 μg/ml Kanamycin to select for insertions containing the NTPII (Kanamycin resistance) gene. In the case this resistance is lost the seeds were also sown onto regular MS media containing no antibiotic and then transferred to soil after one week. Plants were then grown on soil for 2-3 weeks after transfer from the plates and they were examined for status of the T-DNA insertion. Only homozygous T3 and T4 knockout mutants were used for the following experiments.
Isoxaben is a specific inhibitor of cellulose synthesis by affecting the function of the CesA proteins involved in primary cell wall synthesis, such as CesA3 and CesA6 (Scheible et al., 2001; Persson et al., 2007). Because SRF7 in particular is co-expressed with these same CesA genes the effects of isoxaben on SRF mutants was examined. […] The results which are in agreement with the dark-grown hypocotyl phenotypes of the srf mutants supports the hypothesis that SRF6 and SRF7 regulate CesA-mediated synthesis of the primary cell wall

[2] = system: CesA and RLK gene expression; conditions: isoxaben treatment, cited from earlier work

CCC(C)(CC)c1cc(NC(=O)c2c(OC)cccc2OC)on1 [isoxaben]
response of hypocotyl length to isoxaben vs wild type ([1]; dominant negative of SRF7, 0.5 and 1 nM isoxaben): increased resistance | response of hypocotyl length to isoxaben vs wild type ([1]; dominant negative of SRF7, 5 and 10 nM isoxaben): increase sensitivity | response of hypocotyl length to isoxaben vs wild type ([1]; overexpression of SRF7 in srf7-1 mutant): wild type resistance | response of hypocotyl length to isoxaben vs wild type ([1]; srf6-1 and srf7-1 mutants (extracellular domain insertion), up to 10 μM, p<0.05): significantly more resistant | response of hypocotyl length to isoxaben vs wild type ([1]; srf6-2 and srf7-3 mutants): increased sensitivity | response of hypocotyl length to isoxaben vs wild type ([1]; srf7-2 mutant): no difference in isoxaben response | SRF6 gene expression ([2]; FIG. 10B): reduced gene expression | primary cell wall CesA gene expression ([2]; FIG. 10D): reduces primary cell wall CesA gene expression | secondary cell wall CesA gene expression ([2]; FIG. 10D): not the secondary cell wall CesAs
